PubChem BioAssay AID330 (DTP/NCI, 2004)
Values joined by “and” are separate entries in the source; they are usually repeats but may differ in a detail not shown here. Equal entries are not always repeated. Inconclusive results and toxic doses are left out. Rule for the calls: active = survival T/C of 150% or more; inactive = T/C below 125% in these data. Peptide text beside a SMILES is read from it.

Test system: P388 leukemia ip, CD2F1 mice, survival T/C
Test: NCI In Vivo Anticancer Drug Screen. Data for tumor model P388 Leukemia (intraperitoneal) in CD2F1 (CDF1) mice
Conditions: endpoint: median survival time, higher = longer survival
Summary of the method: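 Mice carrying the transplanted tumor received test compound or vehicle. Survival was recorded in each group, and the value is the treated-group measurement divided by that of the vehicle-treated control group.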

[1] = dose: 12.5 mg/kg/injection, schedule: Q01DX009 (ip), vehicle: saline
[2] = dose: 100.0 mg/kg/injection, schedule: Q01DX009 (ip), vehicle: saline
[3] = dose: 200.0 mg/kg/injection, schedule: Q01DX009 (ip), vehicle: saline
[4] = dose: 50.0 mg/kg/injection, schedule: Q01DX009 (ip), vehicle: saline
[5] = dose: 60.0 mg/kg/injection, schedule: Q01DX005 (ip), vehicle: Klucel (hydroxypropylcellulose) (HPC)
[6] = dose: 60.0 mg/kg/injection, schedule: Q01DX005 (ip), vehicle: saline with Tween-80
[7] = dose: 120.0 mg/kg/injection, schedule: Q01DX005 (ip), vehicle: saline with Tween-80
[8] = dose: 25.0 mg/kg/injection, schedule: Q04DX002 (ip), vehicle: saline with Tween-80
[9] = dose: 50.0 mg/kg/injection, schedule: Q04DX002 (ip), vehicle: saline with Tween-80
[10] = dose: 100.0 mg/kg/injection, schedule: Q04DX002 (ip), vehicle: saline with Tween-80
[11] = dose: 50.0 mg/kg/injection, schedule: Q01DX005 (ip), vehicle: Klucel (hydroxypropylcellulose) (HPC)
[12] = dose: 100.0 mg/kg/injection, schedule: Q01DX005 (ip), vehicle: Klucel (hydroxypropylcellulose) (HPC)
[13] = dose: 200.0 mg/kg/injection, schedule: Q01DX005 (ip), vehicle: Klucel (hydroxypropylcellulose) (HPC)
[14] = dose: 50.0 mg/kg/injection, schedule: Q01DX009 (ip), vehicle: Klucel (hydroxypropylcellulose) (HPC)
[15] = dose: 100.0 mg/kg/injection, schedule: Q01DX009 (ip), vehicle: Klucel (hydroxypropylcellulose) (HPC)
[16] = dose: 200.0 mg/kg/injection, schedule: Q01DX009 (ip), vehicle: Klucel (hydroxypropylcellulose) (HPC)
[17] = dose: 100.0 mg/kg/injection, schedule: Q04DX003 (ip), vehicle: saline
[18] = dose: 200.0 mg/kg/injection, schedule: Q04DX003 (ip), vehicle: saline
[19] = dose: 400.0 mg/kg/injection, schedule: Q04DX003 (ip), vehicle: saline

Measured: T/C

O=[N+]([O-])C(Br)(CO)CO
inactive: dose: 3.12 mg/kg/injection, schedule: Q01DX009 (ip), vehicle: saline 100 % of control | dose: 6.25 mg/kg/injection, schedule: Q01DX009 (ip), vehicle: saline 103 % of control | [1] 114 % of control and 118 % of control

CC(C)=CCN1C(=O)c2ccccc2C1=O
inactive: dose: 25.0 mg/kg/injection, schedule: Q01DX009 (ip), vehicle: saline with Tween-80 109 % of control | dose: 50.0 mg/kg/injection, schedule: Q01DX009 (ip), vehicle: saline with Tween-80 109 % of control | dose: 100.0 mg/kg/injection, schedule: Q01DX009 (ip), vehicle: saline with Tween-80 104 % of control | [2] 94 % of control | dose: 100.0 mg/kg/injection, schedule: Q01DX009 (ip), vehicle: suspension in saline 98 % of control and 91 % of control | [3] 102 % of control | dose: 200.0 mg/kg/injection, schedule: Q01DX009 (ip), vehicle: suspension in saline 100 % of control and 103 % of control | dose: 400.0 mg/kg/injection, schedule: Q01DX009 (ip), vehicle: saline 120 % of control | dose: 400.0 mg/kg/injection, schedule: Q01DX009 (ip), vehicle: suspension in saline 110 % of control and 91 % of control

CCC1(O)CC(OC2CC(N(C)C)C(OC3CC(O)C(O)C(C)O3)C(C)O2)c2c(cc3c(c2O)C(=O)c2c(O)ccc(O)c2C3=O)C1C(=O)OC (stereo not drawn)
inactive: dose: 3.13 mg/kg/injection, schedule: Q04DX003 (ip), vehicle: Klucel (hydroxypropylcellulose) (HPC) 100 % of control | dose: 6.25 mg/kg/injection, schedule: Q04DX003 (ip), vehicle: Klucel (hydroxypropylcellulose) (HPC) 110 % of control | dose: 50.0 mg/kg/injection, schedule: Q04DX003 (ip), vehicle: Klucel (hydroxypropylcellulose) (HPC) 120 % of control

O=C1c2ccccc2C(=O)N1CCCC[P+](c1ccccc1)(c1ccccc1)c1ccccc1
inactive: dose: 1.5 mg/kg/injection, schedule: Q01DX009 (ip), vehicle: other 112 % of control | dose: 3.0 mg/kg/injection, schedule: Q01DX009 (ip), vehicle: other 116 % of control | dose: 6.0 mg/kg/injection, schedule: Q01DX009 (ip), vehicle: other 116 % of control | dose: 9.0 mg/kg/injection, schedule: Q01DX009 (ip), vehicle: other 121 % of control

CC(=O)OCC(=O)[C@@]12OC(C)(C)O[C@@H]1C[C@H]1[C@@H]3CC(C=O)=C4C=C(OCCCl)CC[C@]4(C)[C@@]3(F)[C@@H](O)C[C@@]12C
inactive: dose: 0.39 mg/kg/injection, schedule: Q01DX009 (ip), vehicle: Klucel (hydroxypropylcellulose) (HPC) 106 % of control | dose: 0.78 mg/kg/injection, schedule: Q01DX009 (ip), vehicle: Klucel (hydroxypropylcellulose) (HPC) 113 % of control | dose: 1.56 mg/kg/injection, schedule: Q01DX009 (ip), vehicle: Klucel (hydroxypropylcellulose) (HPC) 115 % of control

CC(=O)NNC(=O)C(Cl)Cl
inactive: [1] 92 % of control | dose: 25.0 mg/kg/injection, schedule: Q01DX009 (ip), vehicle: saline 89 % of control | [4] 101 % of control and 90 % of control

Clc1cc2c(c(CSC3=NCN(CC4CC4)CN3)c1)OCOC2
inactive: dose: 15.0 mg/kg/injection, schedule: Q01DX005 (ip), vehicle: Klucel (hydroxypropylcellulose) (HPC) 99 % of control | dose: 30.0 mg/kg/injection, schedule: Q01DX005 (ip), vehicle: Klucel (hydroxypropylcellulose) (HPC) 100 % of control | [5] 98 % of control and 101 % of control

COc1ccc2[nH]cc(C#N)c(=O)c2c1
inactive: dose: 50.0 mg/kg/injection, schedule: Q01DX005 (ip), vehicle: saline with Tween-80 101 % of control | dose: 100.0 mg/kg/injection, schedule: Q01DX005 (ip), vehicle: saline with Tween-80 90 % of control | dose: 200.0 mg/kg/injection, schedule: Q01DX005 (ip), vehicle: saline with Tween-80 92 % of control

COC(=O)CC1CSCC1=O (stereo not drawn)
inactive: [6] 105 % of control | [7] 100 % of control | dose: 240.0 mg/kg/injection, schedule: Q01DX005 (ip), vehicle: saline with Tween-80 105 % of control

CC(=O)c1cn[nH]c1NC(=O)c1ccccc1
inactive: dose: 8.75 mg/kg/injection, schedule: Q01DX005 (ip), vehicle: Klucel (hydroxypropylcellulose) (HPC) 103 % of control | dose: 17.5 mg/kg/injection, schedule: Q01DX005 (ip), vehicle: Klucel (hydroxypropylcellulose) (HPC) 103 % of control | dose: 35.0 mg/kg/injection, schedule: Q01DX005 (ip), vehicle: Klucel (hydroxypropylcellulose) (HPC) 95 % of control

COc1ccc(/C=N\N=C(/[O-])c2ccccc2O)cc1.COc1ccc(/C=N\N=C(/[O-])c2ccccc2O)cc1.[Cu+2].[OH3+].[OH3+]
inactive: [8] 98 % of control | [9] 93 % of control | [10] 93 % of control

CCN(CC)CCNc1cc(O)c2c(c1O)C(=O)c1ccccc1C2=O
inactive: [8] 105 % of control | [9] 98 % of control | [10] 103 % of control and 107 % of control

CCc1cccc(C)c1NC(=O)/C(Cl)=C(\Cl)C(=O)O
inactive: [6] 104 % of control | [7] 106 % of control

S=c1ncn(C2CCCC2)c(=S)[nH]1
inactive: [11] 93 % of control | [12] 103 % of control | [13] 100 % of control

C=CC(=O)NN=C(c1ccccc1)c1ccccc1
inactive: dose: 42.0 mg/kg/injection, schedule: Q01DX009 (ip), vehicle: saline with Tween-80 98 % of control | dose: 84.0 mg/kg/injection, schedule: Q01DX009 (ip), vehicle: saline with Tween-80 103 % of control | dose: 168.0 mg/kg/injection, schedule: Q01DX009 (ip), vehicle: saline with Tween-80 100 % of control

C1CC1c1nn[nH]n1
inactive: [14] 109 % of control | [15] 110 % of control | [16] 107 % of control

CCC(C(=O)N(C)C)n1nc(Br)c(Br)c1C (stereo not drawn)
inactive: dose: 100.0 mg/kg/injection, schedule: Q04DX003 (ip), vehicle: Klucel (hydroxypropylcellulose) (HPC) 97 % of control | dose: 200.0 mg/kg/injection, schedule: Q04DX003 (ip), vehicle: Klucel (hydroxypropylcellulose) (HPC) 95 % of control

CS1(=O)=NC(=N)c2ccccc21 (stereo not drawn)
inactive: [4] 102 % of control | [2] 107 % of control

N#CCCSc1nnc(SCCC#N)s1
inactive: [14] 92 % of control | [15] 101 % of control | [16] 94 % of control | dose: 400.0 mg/kg/injection, schedule: Q01DX009 (ip), vehicle: Klucel (hydroxypropylcellulose) (HPC) 90 % of control

O=C(O)c1c[nH]c2cc(OCCc3ccc(F)cc3)ccc2c1=O
inactive: [4] 107 % of control | [2] 101 % of control | [3] 101 % of control

COC(=O)CCN1CCCC1CC(O)/C=C/c1ccccc1 (stereo not drawn)
inactive: dose: 100.0 mg/kg/injection, schedule: Q01DX001 (ip), vehicle: saline with Tween-80 93 % of control | dose: 200.0 mg/kg/injection, schedule: Q01DX001 (ip), vehicle: saline with Tween-80 100 % of control | dose: 400.0 mg/kg/injection, schedule: Q01DX001 (ip), vehicle: saline with Tween-80 106 % of control

Cc1cnc(NCCCCCCCCNc2ncc(C)c(-c3ccccc3O)n2)nc1-c1ccccc1O
inactive: [17] 95 % of control | [18] 93 % of control | [19] 89 % of control

Cc1cc(Cl)nc2ccc([N+](=O)[O-])cc12
inactive: [17] 92 % of control | [18] 94 % of control | [19] 91 % of control

Cc1ccc(S(=O)(=O)C23C(N=NC2(C)C)C3(C)C)cc1 (stereo not drawn)
inactive: [11] 103 % of control | [12] 103 % of control | [13] 100 % of control

CCCCCCC1CC1C(=O)NCCCCCN=C(N)N (stereo not drawn)
inactive: dose: 7.5 mg/kg/injection, schedule: Q01DX009 (ip), vehicle: Klucel (hydroxypropylcellulose) (HPC) 100 % of control | dose: 15.0 mg/kg/injection, schedule: Q01DX009 (ip), vehicle: Klucel (hydroxypropylcellulose) (HPC) 100 % of control | dose: 30.0 mg/kg/injection, schedule: Q01DX009 (ip), vehicle: Klucel (hydroxypropylcellulose) (HPC) 107 % of control

CCC(C)C(N)C(=O)NC(Cc1ccc(O)cc1)C(=O)O (stereo not drawn) (H-Ile-Tyr-OH; configuration not given here)
inactive: [5] 97 % of control | dose: 120.0 mg/kg/injection, schedule: Q01DX005 (ip), vehicle: Klucel (hydroxypropylcellulose) (HPC) 96 % of control | dose: 240.0 mg/kg/injection, schedule: Q01DX005 (ip), vehicle: Klucel (hydroxypropylcellulose) (HPC) 99 % of control
